From patent publication EP4707280A1, “1,4-CINEOLE DERIVATIVE AND INTERMEDIATE THEREOF, HERBICIDE CONTAINING SAID DERIVATIVE AS ACTIVE INGREDIENT, METHOD FOR USING HERBICIDE, AND METHOD FOR PREPARING AGROCHEMICAL COMPOSITION” (HOKKO CHEMICAL INDUSTRY CO., LTD., priority 2023, dated 2024)

Columns and labels:
Type in all cases: in vivo
[1] = system: Echinochloa crus-galli var. formosensis; assay: Test Example 5: herbicidal effect test by soil application in paddy rice (low dose); conditions: Echinochloa crus-galli, soil, 336 h; 7.5 g per 10 ares; applied immediately after sowing, flooded pots; 14 days after application; read-out: weed inhibition rate
How it was run: (§1)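 7.5 g a.i./10 a applied by dropper into ~3 cm floodwater immediately post-sowing (seeds 0–1 cm, 30 per species; puddled fertilized paddy soil, glasshouse). Duplicates; day-14 inhibition %.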

Amaranthus viridis = assay: Test Example 3: herbicidal effect test by soil application in upland field; conditions: Amaranthus viridis, 120 g per 10 ares, sprayed one day after sowing, 14 days after application, read-out: weed inhibition rate
How it was run: (§2)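 Weed inhibition (%) was assessed 14 days after treatment, in duplicate per concentration group. Seeds had been mixed into the upper 1 cm of upland alluvial loam, and the soil surface was sprayed one day later with the diluted emulsifiable concentrate at 120 g active ingredient per 10 ares.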

Chenopodium album = assay: as above; conditions: 120 g per 10 ares, sprayed one day after sowing, 14 days after application, read-out: weed inhibition rate
How it was run: as §2

Monochoria vaginalis [2] = assay: Test Example 1: herbicidal effect test by soil application in paddy rice; conditions: Pontederia vaginalis, soil, 336 h; 120 g active ingredient per 10 ares; applied immediately after sowing, flooded pots; 14 days after application; read-out: weed inhibition rate
How it was run: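 Inhibition rate (%) read 14 days after treatment, duplicate pots. Water-diluted emulsifiable concentrate was applied by dropper at 120 g active ingredient/10 ares right after sowing. Seeds (30 per species, 0–1 cm deep) went into puddled paddy soil kept flooded at about 3 cm in a greenhouse.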

Scirpus juncoides [3] = assay: Test Example 5: herbicidal effect test by soil application in paddy rice (low dose); conditions: Schoenoplectiella juncoides, 336 h, 7.5 g per 10 ares, applied immediately after sowing, flooded pots, 14 days after application, read-out: weed inhibition rate
How it was run: as §1

Monochoria vaginalis [4] = assay: as above; conditions: Pontederia vaginalis, 336 h, 7.5 g per 10 ares, applied immediately after sowing, flooded pots, 14 days after application, read-out: weed inhibition rate
How it was run: as §1

Scirpus juncoides [5] = assay: Test Example 6: herbicidal effect test by application during growth period of paddy rice (low dose); conditions: Schoenoplectiella juncoides; 7.5 g per 10 ares; applied seven days after sowing, flooded pots; 14 days after application; read-out: weed inhibition rate
How it was run: (§3)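 Formulated compound, diluted in water, was dropped onto flooded pots seven days post-sowing at 7.5 g a.i. per 10 ares. Seeds had been sown 0-1 cm deep in puddled paddy soil under ~3 cm water in a glass greenhouse. Inhibition (%) assessed at 14 days; duplicate pots.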

Monochoria vaginalis [6] = assay: as above; conditions: Pontederia vaginalis; 7.5 g per 10 ares; applied seven days after sowing, flooded pots; 14 days after application; read-out: weed inhibition rate
How it was run: as §3

Echinochloa crus-galli = assay: Test Example 4: herbicidal effect test by stem and leaf treatment in upland field; conditions: Echinochloa crus-galli; 120 g per 10 ares; sprayed seven days after sowing, upland soil; 14 days after application; read-out: weed inhibition rate
Scirpus juncoides [7] = assay: Test Example 1: herbicidal effect test by soil application in paddy rice; conditions: Schoenoplectiella juncoides, soil, 336 h; 120 g active ingredient per 10 ares; applied immediately after sowing, flooded pots; 14 days after application; read-out: weed inhibition rate
How it was run: (§4)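 Flooded-pot paddy assay: sow at 0–1 cm, flood to about 3 cm, then apply diluted emulsifiable concentrate by dropper, 120 g a.i. per 10 ares; greenhouse-grown.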

[8] = system: Echinochloa crus-galli var. formosensis; assay: as above; conditions: Echinochloa crus-galli, soil, 336 h; 120 g active ingredient per 10 ares; applied immediately after sowing, flooded pots; 14 days after application; read-out: weed inhibition rate
How it was run: as §4

CC(C)[C@]12C[C@@H](OCc3ccccc3F)[C@](C)(CC1OCC1CC1)O2 (mixture of isomers) [1-921, (1S,2R,4R,SR)-5-(cyclopropylmethoxy)-2-[(2-fluorophenyl)methoxy]-1-methyl-4-isopropyl-7-oxabicyclo[2.2.1]heptane]
≥ 80%: inhibition at 75 g/ha [1] | inhibition at 1200 g/ha (Amaranthus viridis) | inhibition at 1200 g/ha (Chenopodium album) | pest or weed control at 1200 g/ha (Monochoria vaginalis [2]) | inhibition at 75 g/ha (Scirpus juncoides [3]) | inhibition at 75 g/ha (Monochoria vaginalis [4]) | inhibition at 75 g/ha (Scirpus juncoides [5]) | inhibition at 75 g/ha (Monochoria vaginalis [6]) | inhibition at 1200 g/ha (Echinochloa crus-galli) | pest or weed control at 1200 g/ha (Scirpus juncoides [7]) | pest or weed control at 1200 g/ha [8]

CC(C)[C@]12C[C@@H](OCc3ccccc3F)[C@](C)(C[C@@H]1O)O2 [1-30, (1R,2S,4S,5R)-5-((2-fluorobenzyl)oxy)-1-isopropyl-4-methyl-7-oxabicyclo[2.2.1]heptan-2-ol]
≥ 80%: inhibition at 75 g/ha [1] | inhibition at 1200 g/ha (Amaranthus viridis) | inhibition at 1200 g/ha (Chenopodium album) | pest or weed control at 1200 g/ha (Monochoria vaginalis [2]) | inhibition at 75 g/ha (Scirpus juncoides [3]) | inhibition at 75 g/ha (Scirpus juncoides [5]) | inhibition at 1200 g/ha (Echinochloa crus-galli) | pest or weed control at 1200 g/ha (Scirpus juncoides [7]) | pest or weed control at 1200 g/ha [8]

CO[C@H]1C[C@]2(C)O[C@@]1(C(C)C)C[C@H]2OCc1ccccc1F [1-156, (1S,2R,4R,5S)-2-((2-fluorobenzyl)oxy)-4-isopropyl-5-methoxy-1-methyl-7-oxabicyclo[2.2.1]heptane]
≥ 80%: inhibition at 75 g/ha [1] | inhibition at 1200 g/ha (Amaranthus viridis) | inhibition at 1200 g/ha (Chenopodium album) | pest or weed control at 1200 g/ha (Monochoria vaginalis [2]) | inhibition at 75 g/ha (Scirpus juncoides [3]) | inhibition at 75 g/ha (Monochoria vaginalis [4]) | inhibition at 75 g/ha (Scirpus juncoides [5]) | inhibition at 75 g/ha (Monochoria vaginalis [6]) | inhibition at 1200 g/ha (Echinochloa crus-galli) | pest or weed control at 1200 g/ha (Scirpus juncoides [7]) | pest or weed control at 1200 g/ha [8]

CC(C)[C@]12C=C[C@](C)(O1)C(OCc1ccccc1F)C2 (mixture of isomers) [3-5, (1R,4S,SR)-5-[(2-fluorophenyl)methoxy]-4-methyl-1-isopropyl-7-oxabicyclo[2.2.1]hept-2-ene]
≥ 80%: inhibition at 75 g/ha [1] | inhibition at 1200 g/ha (Amaranthus viridis) | inhibition at 1200 g/ha (Chenopodium album) | pest or weed control at 1200 g/ha (Monochoria vaginalis [2]) | inhibition at 75 g/ha (Scirpus juncoides [3]) | inhibition at 75 g/ha (Scirpus juncoides [5]) | inhibition at 75 g/ha (Monochoria vaginalis [6]) | inhibition at 1200 g/ha (Echinochloa crus-galli) | pest or weed control at 1200 g/ha (Scirpus juncoides [7]) | pest or weed control at 1200 g/ha [8]

C=C1C[C@]2(C)O[C@@]1(C(C)C)C[C@H]2OCc1ccccc1F [2-88, (1R,4S,5R)-5-((2-fluorobenzyl)oxy)-1-isopropyl-4-methyl-2-methylene-7-oxabicyclo[2.2.1]heptane]
≥ 80%: inhibition at 75 g/ha [1] | inhibition at 1200 g/ha (Amaranthus viridis) | inhibition at 1200 g/ha (Chenopodium album) | pest or weed control at 1200 g/ha (Monochoria vaginalis [2]) | inhibition at 75 g/ha (Scirpus juncoides [3]) | inhibition at 75 g/ha (Monochoria vaginalis [4]) | inhibition at 75 g/ha (Scirpus juncoides [5]) | inhibition at 75 g/ha (Monochoria vaginalis [6]) | inhibition at 1200 g/ha (Echinochloa crus-galli) | pest or weed control at 1200 g/ha (Scirpus juncoides [7]) | pest or weed control at 1200 g/ha [8]

C#CCO[C@@H]1C[C@]2(C)O[C@@]1(C(C)C)C[C@H]2OCc1ccccc1F [1-931, (1S,2R,4R,5R)-2-[(2-fluorophenyl)methoxy]-1-methyl-4-isopropyl-5-prop-2-ynoxy-7-oxabicyclo[2.2.1]heptane]
≥ 80%: inhibition at 75 g/ha [1] | inhibition at 1200 g/ha (Amaranthus viridis) | inhibition at 1200 g/ha (Chenopodium album) | pest or weed control at 1200 g/ha (Monochoria vaginalis [2]) | inhibition at 75 g/ha (Scirpus juncoides [3]) | inhibition at 75 g/ha (Monochoria vaginalis [4]) | inhibition at 75 g/ha (Scirpus juncoides [5]) | inhibition at 75 g/ha (Monochoria vaginalis [6]) | inhibition at 1200 g/ha (Echinochloa crus-galli) | pest or weed control at 1200 g/ha (Scirpus juncoides [7]) | pest or weed control at 1200 g/ha [8]

CC(C)[C@]12C[C@@H](OCc3ccccc3F)[C@](C)(CC1=O)O2 [2-9, (1R,4S,5R)-5-((2-fluorobenzyl)oxy)-1-isopropyl-4-methyl-7-oxabicyclo[2.2.1]heptan-2-one]
≥ 80%: inhibition at 75 g/ha [1] | inhibition at 1200 g/ha (Amaranthus viridis) | inhibition at 1200 g/ha (Chenopodium album) | pest or weed control at 1200 g/ha (Monochoria vaginalis [2]) | inhibition at 75 g/ha (Scirpus juncoides [3]) | inhibition at 75 g/ha (Monochoria vaginalis [4]) | inhibition at 75 g/ha (Scirpus juncoides [5]) | inhibition at 75 g/ha (Monochoria vaginalis [6]) | inhibition at 1200 g/ha (Echinochloa crus-galli) | pest or weed control at 1200 g/ha (Scirpus juncoides [7]) | pest or weed control at 1200 g/ha [8]

C=C1C[C@]2(C)O[C@@]1(C(C)C)C[C@H]2OCc1ccccc1C [2-72, (1R,4S,5R)-1-isopropyl-4-methyl-5-((2-methylbenzyl)oxy)-2-methylene-7-oxabicyclo[2.2.1]heptane]
≥ 80%: inhibition at 75 g/ha [1] | inhibition at 1200 g/ha (Amaranthus viridis) | inhibition at 1200 g/ha (Chenopodium album) | pest or weed control at 1200 g/ha (Monochoria vaginalis [2]) | inhibition at 75 g/ha (Monochoria vaginalis [4]) | inhibition at 75 g/ha (Scirpus juncoides [5]) | inhibition at 75 g/ha (Monochoria vaginalis [6]) | inhibition at 1200 g/ha (Echinochloa crus-galli) | pest or weed control at 1200 g/ha (Scirpus juncoides [7]) | pest or weed control at 1200 g/ha [8]

C=CCO[C@@H]1C[C@]2(C)O[C@@]1(C(C)C)C[C@H]2OCc1ccccc1F [1-930, (1S,2R,4R,5R)-2-[(2-fluorophenyl)methoxy]-1-methyl-4-isopropyl-5-prop-2-enoxy-7-oxabicyclo[2.2.1]heptane]
≥ 80%: inhibition at 75 g/ha [1] | inhibition at 1200 g/ha (Amaranthus viridis) | inhibition at 1200 g/ha (Chenopodium album) | pest or weed control at 1200 g/ha (Monochoria vaginalis [2]) | inhibition at 75 g/ha (Scirpus juncoides [3]) | inhibition at 75 g/ha (Monochoria vaginalis [4]) | inhibition at 75 g/ha (Scirpus juncoides [5]) | inhibition at 75 g/ha (Monochoria vaginalis [6]) | inhibition at 1200 g/ha (Echinochloa crus-galli) | pest or weed control at 1200 g/ha (Scirpus juncoides [7]) | pest or weed control at 1200 g/ha [8]
